Active and inactive are the calls of the source. The rule behind the calls is not given here.
Legend:
Mus musculus [1] = assay: Toxicity in Kunming mouse xenografted with […] H22 cells assessed as effect on spleen weight index at 30 mg/kg, iv administered for 7 consecutive days; type: organism-based; settings: in vivo
HepG2 [2] = assay: Cytotoxicity in human HepG2 cells assessed as gain in lysosomal mass/pH after 48 hrs by LysoTracker Red dye-based fluorescence assay; type: functional, cell-based
HeLa = assay: Antiproliferative activity against human HeLa cells after 48 hrs by MTT assay; type: functional, cell-based
[3] = Toxicity in iv dosed Kunming mouse assessed as maximum tolerated dose administered for 7 consecutive days; type: organism-based; settings: in vivo
Mus musculus [4] = assay: Toxicity in Kunming mouse xenografted with […] H22 cells assessed as effect on heart weight index at 30 mg/kg, iv administered for 7 consecutive days; type: organism-based; settings: in vivo
Mus musculus [5] = assay: Toxicity in Kunming mouse xenografted with […] H22 cells assessed as effect on kidney weight index at 30 mg/kg, iv administered for 7 consecutive days; type: organism-based; settings: in vivo
[6] = Drug localization in endoplasmic reticulum of human HepG2 cells at 7.5 uM after 8 hrs by ER-Tracker Red dye-based confocal fluorescence microscopic analysis; type: ADME, subcellular; settings: hepg2, 8 h
HepG2 [7] = assay: Induction of apoptosis in human HepG2 cells assessed as early apoptotic cells at 7.5 uM after 8 hrs by Annexin V-FITC/propidium iodide staining-based flow cytometry (reference value: 1.29%); type: functional
HepG2 [8] = assay: Induction of apoptosis in human HepG2 cells assessed as viable cells at 7.5 uM after 8 hrs by Annexin V-FITC/propidium iodide staining-based flow cytometry (reference value: 97.43%); type: functional; settings: HepG2, 8 h, read-out: Activity
HepG2 [9] = assay: Induction of apoptosis in human HepG2 cells assessed as early apoptotic cells at 5 uM after 8 hrs by Annexin V-FITC/propidium iodide staining-based flow cytometry (reference value: 1.29%); type: functional
HepG2 [10] = assay: Induction of apoptosis in human HepG2 cells assessed as necrotic cells at 2.5 uM after 24 hrs by Annexin V-FITC/propidium iodide staining-based flow cytometry (reference value: 0.12%); type: functional
HepG2 [11] = assay: Induction of apoptosis in human HepG2 cells assessed as late apoptotic cells at 7.5 uM after 24 hrs by Annexin V-FITC/propidium iodide staining-based flow cytometry (reference value: 0.88%); type: functional
HepG2 [12] = assay: Induction of apoptosis in human HepG2 cells assessed as necrotic cells at 7.5 uM after 24 hrs by Annexin V-FITC/propidium iodide staining-based flow cytometry (reference value: 0.12%); type: functional
HepG2 [13] = assay: Induction of apoptosis in human HepG2 cells assessed as necrotic cells at 5 uM after 24 hrs by Annexin V-FITC/propidium iodide staining-based flow cytometry (reference value: 0.12%); type: functional
HepG2 [14] = assay: Induction of apoptosis in human HepG2 cells assessed as early apoptotic cells at 2.5 uM after 36 hrs by Annexin V-FITC/propidium iodide staining-based flow cytometry (reference value: 2.08%); type: functional
HepG2 [15] = assay: Induction of apoptosis in human HepG2 cells assessed as late apoptotic cells at 2.5 uM after 36 hrs by Annexin V-FITC/propidium iodide staining-based flow cytometry (reference value: 1.08%); type: functional
HepG2 [16] = assay: Induction of apoptosis in human HepG2 cells assessed as late apoptotic cells at 7.5 uM after 36 hrs by Annexin V-FITC/propidium iodide staining-based flow cytometry (reference value: 1.08%); type: functional
HepG2 [17] = assay: Induction of apoptosis in human HepG2 cells assessed as necrotic cells at 7.5 uM after 36 hrs by Annexin V-FITC/propidium iodide staining-based flow cytometry (reference value: 0.24%); type: functional
HepG2 [18] = assay: Induction of apoptosis in human HepG2 cells assessed as viable cells at 7.5 uM after 36 hrs by Annexin V-FITC/propidium iodide staining-based flow cytometry (reference value: 96.6%); type: functional; settings: HepG2, 36 h, read-out: Activity
HepG2 [19] = assay: Induction of apoptosis in human HepG2 cells assessed as early apoptotic cells at 5 uM after 36 hrs by Annexin V-FITC/propidium iodide staining-based flow cytometry (reference value: 2.08%); type: functional
HepG2 [20] = assay: Induction of apoptosis in human HepG2 cells assessed as viable cells at 5 uM after 36 hrs by Annexin V-FITC/propidium iodide staining-based flow cytometry (reference value: 96.6%); type: functional; settings: HepG2, 36 h, read-out: Activity
HepG2 [21] = assay: Induction of apoptosis in human HepG2 cells assessed as early apoptotic cells at 2.5 uM after 48 hrs by Annexin V-FITC/propidium iodide staining-based flow cytometry (reference value: 1.30%); type: functional
HepG2 [22] = assay: Induction of apoptosis in human HepG2 cells assessed as late apoptotic cells at 2.5 uM after 48 hrs by Annexin V-FITC/propidium iodide staining-based flow cytometry (reference value: 0.95%); type: functional
HepG2 [23] = assay: Induction of apoptosis in human HepG2 cells assessed as early apoptotic cells at 7.5 uM after 48 hrs by Annexin V-FITC/propidium iodide staining-based flow cytometry (reference value: 1.30%); type: functional
HepG2 [24] = assay: Induction of apoptosis in human HepG2 cells assessed as late apoptotic cells at 7.5 uM after 48 hrs by Annexin V-FITC/propidium iodide staining-based flow cytometry (reference value: 0.95%); type: functional
HepG2 [25] = assay: Induction of apoptosis in human HepG2 cells assessed as late apoptotic cells at 5 uM after 48 hrs by Annexin V-FITC/propidium iodide staining-based flow cytometry (reference value: 0.95%); type: functional
HepG2 [26] = assay: Induction of apoptosis in human HepG2 cells assessed as viable cells at 5 uM after 48 hrs by Annexin V-FITC/propidium iodide staining-based flow cytometry (reference value: 96.67%); type: functional; settings: HepG2, 48 h, read-out: Activity
HepG2 [27] = assay: Induction of apoptosis in human HepG2 cells assessed as increase in Bax protein expression after 48 hrs by immunofluorescence staining-based high content screening assay; type: functional, cell-based
HepG2 [28] = assay: Induction of apoptosis in human HepG2 cells assessed as increase in p53 protein expression after 48 hrs by immunofluorescence staining-based high content screening assay; type: functional, cell-based
HepG2 [29] = assay: Induction of apoptosis in human HepG2 cells assessed as upregulation of active caspase 9 level after 48 hrs by immunofluorescence staining-based high content screening assay; type: functional, cell-based
HepG2 [30] = assay: Induction of autophagy in human HepG2 cells assessed as formation of autolysosomes at 2.5 to 7.5 uM preincubated cells with 3-MA for 2 hrs followed by compound addition measured after 48 hrs by MDC staining-based assay; type: functional, cell-based
HepG2 [31] = assay: Induction of apoptosis in human HepG2 cells at 5 uM preincubated cells with autophagy inhibitor 3-MA for 2 hrs followed by compound addition measured after 48 hrs by Annexin V-FITC/propidium iodide staining-based flow cytometry relative to control; type: functional; design: scale not given: the % may be the effect or the level left
HepG2 [32] = assay: Induction of autophagy in human HepG2 cells assessed as upregulation of beclin1 expression at 5 uM by Western blot analysis; type: functional, cell-based
HepG2 [33] = assay: Induction of autophagy in human HepG2 cells assessed as upregulation of beclin1 expression at 5 uM in presence of autophagy inhibitor 3-MA by Western blot analysis; type: functional, cell-based
[34] = Drug uptake in human HepG2 cells assessed as PAT-mediated compound uptake at 10 uM after 8 hrs in presence of spermidine by HCS analysis; type: ADME, cell-based; settings: hepg2, 8 h
HepG2 [35] = assay: Induction of autophagy in human HepG2 cells assessed as formation of autolysosomes after 48 hrs by MDC staining-based assay; type: functional, cell-based

Question: With `COc1ccc2cc(-c3oc4c(CNCCCCN)cccc4c(=O)c3OC)ccc2c1Br.Cl.Cl` as the molecule, how does the Activity (Mus musculus [1]) read?
Answer: Non-Toxic

Question: And the Activity (HepG2 [2])?
Answer: Dose-dependent effect

Question: What about the IC50 (HeLa) of the same molecule?
Answer: 5.9 µM

Question: What about the MTD at 7 days [3] of the same molecule?
Answer: 50 mg/kg

Question: What about the Activity (Mus musculus [4]) of the same molecule?
Answer: Non-Toxic

Question: What about the Activity (Mus musculus [5]) of the same molecule?
Answer: Non-Toxic

Question: And the Drug uptake [6]?
Answer: Active

Question: What about the Activity (HepG2 [7]) of the same molecule?
Answer: 18.1%

Question: What about the viability at 7.5 µM (HepG2 [8]) of the same molecule?
Answer: 78.5%

Question: And the Activity (HepG2 [9])?
Answer: 5.06%

Question: And the Activity (HepG2 [10])?
Answer: 0%

Question: And the Activity (HepG2 [11])?
Answer: 9.48%

Question: And the Activity (HepG2 [12])?
Answer: 4.51%

Question: And the Activity (HepG2 [13])?
Answer: 0.05%

Question: What about the Activity (HepG2 [14]) of the same molecule?
Answer: 6.24%

Question: What about the Activity (HepG2 [15]) of the same molecule?
Answer: 5.89%

Question: What about the Activity (HepG2 [16]) of the same molecule?
Answer: 6.3%

Question: And the Activity (HepG2 [17])?
Answer: 0.26%

Question: What about the viability at 7.5 µM (HepG2 [18]) of the same molecule?
Answer: 64.7%

Question: What about the Activity (HepG2 [19]) of the same molecule?
Answer: 16.72%

Question: And the viability at 5 µM (HepG2 [20])?
Answer: 81%

Question: What about the Activity (HepG2 [21]) of the same molecule?
Answer: 21.8%

Question: And the Activity (HepG2 [22])?
Answer: 3.85%

Question: And the Activity (HepG2 [23])?
Answer: 23.02%

Question: And the Activity (HepG2 [24])?
Answer: 31.22%

Question: What about the Activity (HepG2 [25]) of the same molecule?
Answer: 9.87%

Question: What about the viability at 5 µM (HepG2 [26]) of the same molecule?
Answer: 60.4%

Question: And the Activity (HepG2 [27])?
Answer: Dose-dependent effect

Question: What about the Activity (HepG2 [28]) of the same molecule?
Answer: Dose-dependent effect

Question: What about the Activity (HepG2 [29]) of the same molecule?
Answer: Dose-dependent effect

Question: What about the Activity (HepG2 [30]) of the same molecule?
Answer: inactive

Question: And the Activity (HepG2 [31])?
Answer: 53.07%

Question: What about the Activity (HepG2 [32]) of the same molecule?
Answer: Active

Question: What about the Activity (HepG2 [33]) of the same molecule?
Answer: inactive

Question: And the Drug uptake [34]?
Answer: Not Active

Question: And the Activity (HepG2 [35])?
Answer: Dose-dependent effect
